In the oligonucleotide strings, read from the 5' end, every base follows the letter of its sugar. An asterisk marks phosphorothioate; unmarked linkages are phosphodiester. Other units and linkages are bracketed, terminal groups are in braces. A string of capitals states the bases alone. e = 2'-O-(2-methoxyethyl) (MOE); [5mC] = 5-methylcytosine; d = 2'-deoxy (DNA)
System: human Factor 7 mRNA
Assay: Antisense inhibition of human Factor 7 mRNA in HepB3 cells, lipofectin, 50 nM, real-time RT-PCR
Type: cell-based
Settings: HepB3 cells; for % Inhibition (human Factor 7 mRNA): Example 1, lipofectin, 50 nM, ~24 h, relative to untreated control cells
Method: Antisense oligonucleotides targeted to a Factor 7 nucleic acid were tested for their effects on Factor 7 mRNA in vitro. Cultured HepB3 cells at a density of 4,000 cells per well were transfected using lipofectin reagent with 50 nM antisense oligonucleotide. After a treatment period of approximately 24 hours, RNA was isolated from the cells and Factor 7 mRNA levels were measured by real-time RT-PCR, as described herein. Factor 7 mRNA levels were adjusted according to total RNA content as measured by RIBOGREEN®. Results are presented as percent inhibition of Factor 7, relative to untreated control cells.
(§1) Antisense oligonucleotides targeted to a Factor 7 nucleic acid were designed and tested for their effects on Factor 7 mRNA in vitro. Certain antisense oligonucleotides from Table 3 were also retested for their effects on Factor 7 mRNA in vitro. Cultured HepB3 cells at a density of 4,000 cells per well were transfected using lipofectin reagent with 50 nM antisense oligonucleotide. After a treatment period of approximately 24 hours, RNA was isolated from the cells and Factor 7 mRNA levels were measured by real-time RT-PCR, as described herein. Human Factor 7 primer probe set RTS 2927 was used to measure mRNA levels. Factor 7 mRNA levels were adjusted according to total RNA content as measured by RIBOGREEN®. Results are presented as percent inhibition of Factor 7, relative to untreated control.
as §1, with “tested” for “tested for their effects on Factor 7 mRNA in vitro. Certain antisense oligonucleotides from Table 3 were also retested”
These gapmers were designed by creating gapmers shifted slightly upstream and downstream (i.e. “microwalk”) of the original gapmers from Table 7. Gapmers were also created with various motifs, e.g. 5-10-5 MOE, 3-14-3 MOE, and 2-13-5 MOE. These gapmers were tested in vitro. Cultured HepB3 cells at a density of 4,000 cells per well were transfected using lipofectin reagent with 50 nM antisense oligonucleotide. After a treatment period of approximately 24 hours, RNA was isolated from the cells and Factor 7 mRNA levels were measured by real-time RT-PCR. Factor 7 mRNA levels were adjusted according to total RNA content, as measured by RIBOGREEN®. Results are presented as percent inhibition of Factor 7, relative to untreated control cells.

Row | Substance | % Inhibition (human Factor 7 mRNA) [%] | % Inhibition of human Factor 7 mRNA levels (gapmers targeted to nucleobases 14707 to 14732 of SEQ ID NO: 1 (Table 11)) [%]
1 | 407632 (antisense eT*e[5mC]*e[5mC]*eG*eT*dT*d[5mC]*dG*dG*dG*d[5mC]*dA*dG*dG*d[5mC]*eA*eG*eA*eG*eG) [compound 407632] | 46 | 
2 | 407633 (antisense eG*e[5mC]*eA*eG*eG*d[5mC]*dA*dG*dT*d[5mC]*d[5mC]*dT*dG*dG*dG*eT*e[5mC]*eA*eT*e[5mC]) [compound 407633] | 71 | 
3 | 407634 (antisense eG*eT*eG*eA*e[5mC]*dT*dG*d[5mC]*dT*dG*d[5mC]*dA*dG*dG*d[5mC]*eA*eG*eT*e[5mC]*e[5mC]) [compound 407634] | 24 | 
4 | 407635 (antisense eT*eG*eG*e[5mC]*e[5mC]*d[5mC]*d[5mC]*dA*dG*d[5mC]*dT*dG*dA*d[5mC]*dG*eA*eT*eG*e[5mC]*e[5mC]) [compound 407635] | 64 | 
5 | 407636 (antisense eG*e[5mC]*eA*eG*e[5mC]*d[5mC]*d[5mC]*dT*dG*dG*d[5mC]*d[5mC]*d[5mC]*d[5mC]*dA*eG*e[5mC]*eT*eG*eA) [compound 407636] | 75 | 
6 | 407637 (antisense eG*eT*eA*e[5mC]*eT*dG*dG*dG*dA*dG*dA*d[5mC]*d[5mC]*d[5mC]*dT*eG*eG*eT*eG*eT) [compound 407637] | 71 | 
7 | 407638 (antisense eG*e[5mC]*e[5mC]*eA*e[5mC]*dT*d[5mC]*dG*dA*dT*dG*dT*dA*d[5mC]*dT*eG*eG*eG*eA*eG) [compound 407638] | 0 | 
8 | 407639 (antisense eT*eT*eT*eG*e[5mC]*dA*dG*d[5mC]*d[5mC]*dA*d[5mC]*dT*d[5mC]*dG*dA*eT*eG*eT*eA*e[5mC]) [compound 407639] | 76 | 
9 | 407640 (antisense eG*e[5mC]*eA*eT*eG*dA*dG*d[5mC]*dT*dT*dT*dT*dG*d[5mC]*dA*eG*e[5mC]*e[5mC]*eA*e[5mC]) [compound 407640] | 79 | 
10 | 407642 (antisense e[5mC]*eA*eG*e[5mC]*eA*dG*d[5mC]*d[5mC]*dT*dG*dA*dG*dG*d[5mC]*d[5mC]*eA*eG*e[5mC]*eA*eG) [compound 407642] | 78 | 63
11 | 407644 (antisense eG*eA*eG*eG*eA*d[5mC]*dA*dG*d[5mC]*dA*d[5mC]*dA*d[5mC]*dA*dT*eG*eG*eA*eG*eT) [compound 407644] | 66 | 
12 | 407645 (antisense eG*eA*eG*eA*eG*d[5mC]*dT*dA*dA*dA*d[5mC]*dA*dA*d[5mC]*d[5mC]*eG*e[5mC]*e[5mC]*eT*eT) [compound 407645] | 65 | 
13 | 407646 (antisense eG*eG*eT*eG*eA*dT*dG*d[5mC]*dT*dT*d[5mC]*dT*dG*dA*dA*eT*eT*eG*eT*e[5mC]) [compound 407646] | 81 | 
14 | 407647 (antisense eG*e[5mC]*eA*eG*e[5mC]*d[5mC]*dG*dT*dT*dT*dA*dT*dT*dG*dT*eG*eA*eA*eG*e[5mC]) [compound 407647] | 83 | 
15 | 407649 (antisense eG*eA*eG*eG*eG*dT*dT*d[5mC]*dA*dT*dT*dT*d[5mC]*dA*dG*eT*eG*eA*eT*eG) [compound 407649] | 24 | 
16 | 407650 (antisense e[5mC]*e[5mC]*eA*eT*eG*dT*dG*dA*dG*dG*dG*dT*dT*d[5mC]*dA*eT*eT*eT*e[5mC]*eA) [compound 407650] | 39 | 
17 | 407651 (antisense eA*eG*e[5mC]*e[5mC]*eT*d[5mC]*dA*dA*dA*d[5mC]*dA*dT*d[5mC]*dT*dA*eT*e[5mC]*eA*eA*eA) [compound 407651] | 32 | 

Row | Substance | % Inhibition (human Factor 7 mRNA) [%] | % Inhibition of human Factor 7 mRNA levels (gapmers targeted to nucleobases 14707 to 14732 of SEQ ID NO: 1 (Table 11)) [%]
18 | 407652 (antisense eT*eG*eG*eG*eA*dG*d[5mC]*dT*dA*d[5mC]*dA*dG*d[5mC]*d[5mC]*dT*e[5mC]*eA*eA*eA*e[5mC]) [compound 407652] | 30 | 
19 | 407653 (antisense eA*eA*eT*eA*eT*d[5mC]*dA*dT*dT*dG*dA*d[5mC]*dA*dA*dG*eG*eG*e[5mC]*eT*eG) [compound 407653] | 21 | 
20 | 407654 (antisense e[5mC]*e[5mC]*eA*e[5mC]*eT*dG*d[5mC]*dA*dG*d[5mC]*d[5mC]*dA*dG*dG*dG*e[5mC]*e[5mC]*eT*eG*eG) [compound 407654] | 34 | 
21 | 407655 (antisense eA*eG*eA*eG*eT*dG*d[5mC]*dA*dG*d[5mC]*dT*dT*dG*d[5mC]*d[5mC]*eA*eG*eG*eT*e[5mC]) [compound 407655] | 28 | 
22 | 407656 (antisense e[5mC]*eA*eG*e[5mC]*eA*dA*dG*dA*dG*dT*dG*d[5mC]*dA*dG*d[5mC]*eT*eT*eG*e[5mC]*e[5mC]) [compound 407656] | 43 | 
23 | 407657 (antisense eG*eG*eG*eA*e[5mC]*dT*d[5mC]*dA*dG*d[5mC]*dA*dA*dG*dA*dG*eT*eG*e[5mC]*eA*eG) [compound 407657] | 26 | 
24 | 407658 (antisense eG*e[5mC]*eT*eT*eG*d[5mC]*d[5mC]*dG*dG*dA*dG*dT*d[5mC]*dT*dG*eA*eG*eT*eG*eG) [compound 407658] | 16 | 
25 | 407659 (antisense eG*eA*eT*eG*eG*d[5mC]*dA*dT*d[5mC]*dG*dA*dG*dT*d[5mC]*d[5mC]*eA*e[5mC]*eT*e[5mC]*eT) [compound 407659] | 55 | 
26 | 407660 (antisense eG*e[5mC]*eT*e[5mC]*eT*dG*dA*dA*dG*dT*dA*dG*dA*dT*dG*eA*eT*eG*e[5mC]*e[5mC]) [compound 407660] | 16 | 
27 | 407661 (antisense eT*eT*eT*eA*e[5mC]*dA*dA*dG*dA*dG*d[5mC]*dA*dG*dG*dG*eT*eG*e[5mC]*e[5mC]*eT) [compound 407661] | 47 | 
28 | 407663 (antisense eT*eT*eG*e[5mC]*eA*dG*dG*d[5mC]*dA*dG*dG*dA*d[5mC]*dT*dG*eG*eT*eG*eG*eT) [compound 407663] | 44 | 
29 | 407664 (antisense e[5mC]*eA*eG*eG*eG*d[5mC]*dG*dA*dG*dG*d[5mC]*dA*dA*d[5mC]*d[5mC]*e[5mC]*e[5mC]*eG*eT*eG) [compound 407664] | 70 | 
30 | 407665 (antisense eG*eT*eT*eA*e[5mC]*dG*dA*dA*dG*dA*d[5mC]*dT*dG*dG*dG*eA*eA*eA*eT*eG) [compound 407665] | 29 | 
31 | 407666 (antisense eT*e[5mC]*e[5mC]*e[5mC]*e[5mC]*dA*dG*dG*dA*d[5mC]*dA*dT*d[5mC]*dT*dG*eG*eA*eA*e[5mC]*eT) [compound 407666] | 52 | 
32 | 407667 (antisense eG*eT*eG*eG*e[5mC]*d[5mC]*dA*dT*dG*d[5mC]*d[5mC]*d[5mC]*dT*dG*dG*eG*eT*e[5mC]*eA*eG) [compound 407667] | 71 | 
33 | 407668 (antisense eG*eA*eA*eG*e[5mC]*d[5mC]*dT*dT*dA*d[5mC]*d[5mC]*dT*dG*d[5mC]*d[5mC]*eA*eT*eG*eG*eA) [compound 407668] | 54 | 
34 | 407669 (antisense eT*eA*eG*eA*e[5mC]*d[5mC]*d[5mC]*dT*d[5mC]*dA*dG*dT*dG*dA*dG*eT*eG*eT*e[5mC]*eG) [compound 407669] | 57 | 

— patent US20120214862A1, “MODULATION OF FACTOR 7 EXPRESSION” (ISIS Pharmaceuticals, Inc., priority 2009, published 2012)
